# Laboratory results published in ChEMBL document CHEMBL1125966, “Synthesis and pharmacological evaluation of combined thromboxane receptor antagonist/synthase inhibitors: pyridine-containing sulphonamido acids” (Bioorg Med Chem Lett, 1991).
# Key:
# [1] = target: T1, Thromboxane A2 receptor (Rattus norvegicus, UniProt P34978); assay: In vitro thromboxane A2 receptor antagonism through inhibition of U-46619 induced contraction of rat isolated thoracic aortic strip; format: functional; settings: read-out: pA2 (converted)
# T1 sequence (P34978 whole entry): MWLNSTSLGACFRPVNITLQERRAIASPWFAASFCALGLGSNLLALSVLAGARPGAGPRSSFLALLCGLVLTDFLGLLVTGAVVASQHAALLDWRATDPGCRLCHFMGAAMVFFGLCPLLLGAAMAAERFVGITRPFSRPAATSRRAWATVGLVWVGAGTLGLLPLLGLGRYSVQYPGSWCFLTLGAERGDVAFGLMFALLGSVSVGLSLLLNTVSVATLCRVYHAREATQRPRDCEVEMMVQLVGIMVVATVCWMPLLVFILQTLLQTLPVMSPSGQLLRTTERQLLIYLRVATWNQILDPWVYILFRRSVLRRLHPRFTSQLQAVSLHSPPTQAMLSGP
# [2] = target: T2, Thromboxane A2 receptor (Homo sapiens, UniProt P21731); assay: In vitro thromboxane A2 receptor antagonism through inhibition of U-46619 induced platelet aggregation in human whole blood; format: functional, tissue-based; settings: read-out: pA2 (converted)
# T2 sequence (P21731 whole entry): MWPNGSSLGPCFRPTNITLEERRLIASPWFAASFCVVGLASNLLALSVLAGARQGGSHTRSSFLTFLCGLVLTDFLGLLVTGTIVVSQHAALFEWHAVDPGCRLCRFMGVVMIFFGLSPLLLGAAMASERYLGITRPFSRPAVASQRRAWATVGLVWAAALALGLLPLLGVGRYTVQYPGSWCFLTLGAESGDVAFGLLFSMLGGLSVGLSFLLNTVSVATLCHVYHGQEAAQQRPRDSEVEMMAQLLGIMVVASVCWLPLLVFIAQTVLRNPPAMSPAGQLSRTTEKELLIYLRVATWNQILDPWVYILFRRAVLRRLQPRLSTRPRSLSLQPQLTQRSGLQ
# [3] = target: T3, Thromboxane-A synthase (Homo sapiens, UniProt P24557); assay: In vitro inhibition of collagen-induced thromboxane A2 production in human whole blood; format: functional, tissue-based
# T3 sequence (P24557 whole entry): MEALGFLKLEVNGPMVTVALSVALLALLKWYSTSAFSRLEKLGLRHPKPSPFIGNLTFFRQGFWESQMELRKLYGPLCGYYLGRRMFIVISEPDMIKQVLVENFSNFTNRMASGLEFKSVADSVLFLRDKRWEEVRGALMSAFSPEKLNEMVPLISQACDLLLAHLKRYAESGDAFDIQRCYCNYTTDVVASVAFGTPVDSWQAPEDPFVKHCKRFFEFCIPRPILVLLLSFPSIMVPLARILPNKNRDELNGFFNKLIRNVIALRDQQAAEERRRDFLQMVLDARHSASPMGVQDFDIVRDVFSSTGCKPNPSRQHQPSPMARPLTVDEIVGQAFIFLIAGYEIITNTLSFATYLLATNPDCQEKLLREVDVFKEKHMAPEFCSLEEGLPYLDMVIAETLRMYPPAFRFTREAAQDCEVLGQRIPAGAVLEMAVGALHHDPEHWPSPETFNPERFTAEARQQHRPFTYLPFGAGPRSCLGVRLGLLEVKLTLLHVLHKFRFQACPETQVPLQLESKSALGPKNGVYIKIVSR
# [4] = The half life period was determined; format: ADME
# [5] = tested on: Canis familiaris; assay: Tested ex vivo for the percent inhibition of serum TXA2 production with collagen-induced platelet aggregation in anasthetised dog after administration at a dose of 10 ug/kg/min; format: functional; settings: Canis lupus familiaris
# [6] = tested on: Canis familiaris; assay: Tested ex vivo for the percent inhibition of serum TXA2 production with collagen-induced platelet aggregation in conscious dog at dosage of 10 mg/kg for 12 to 24 h; format: functional; settings: Canis lupus familiaris
Structure (SMILES),Kb [1],Kb [2],IC50 [3],half-life [4],inhibition in vivo at 10 µg/kg/min [5],inhibition in vivo at 10 mg/kg [6]
O=C(O)CCCC/C=C(/c1cccnc1)c1cccc(CCNS(=O)(=O)c2ccc(I)cc2)c1,0.01 µM,0.794 µM,0.02 µM,,,
CC(C)(CNS(=O)(=O)c1ccc(I)cc1)c1cccc(/C(=N\OCCC(=O)O)c2cccnc2)c1,0.002 µM,0.316 µM,0.2 µM,< 30 min,,
O=C(O)CCCCO/N=C(/c1cccnc1)c1cccc(C(F)(F)F)c1 [RIDOGREL],,,,< 30 min,,
O=C(O)CCO/N=C(/c1cccnc1)c1cccc(CCNS(=O)(=O)c2ccc(I)cc2)c1,0.000631 µM,0.1 µM,0.501 µM,< 30 min,,
O=C(O)CCCCO/N=C(/c1cccnc1)c1cccc(CCNS(=O)(=O)c2ccc(I)cc2)c1,0.2 µM,2 µM,0.2 µM,< 30 min,,
CC(C)(CNS(=O)(=O)c1ccc(I)cc1)c1cccc(/C(=C\CCCC(=O)O)c2cccnc2)c1,0.000631 µM,0.2 µM,0.0316 µM,,> 98%,> 90%
O=C(O)CO/N=C(/c1cccnc1)c1cccc(CCNS(=O)(=O)c2ccc(I)cc2)c1,0.00158 µM,0.2 µM,> 1 µM,,,
O=C(O)CCCO/N=C(/c1cccnc1)c1cccc(CCNS(=O)(=O)c2ccc(I)cc2)c1,0.0126 µM,1.58 µM,0.2 µM,< 30 min,,

# The next lines start with results.
Kb [1],Kb [2],IC50 [3],half-life [4],Structure (SMILES),inhibition in vivo at 10 µg/kg/min [5],inhibition in vivo at 10 mg/kg [6]
0.00398 µM,0.631 µM,0.0398 µM,,O=C(O)CCC/C=C(/c1cccnc1)c1cccc(CCNS(=O)(=O)c2ccc([N+](=O)[O-])cc2)c1,,
0.0158 µM,0.794 µM,0.0501 µM,,O=C(O)CCC/C=C(/c1cccnc1)c1cccc(CCNS(=O)(=O)c2ccccc2)c1,,
0.0631 µM,0.316 µM,0.0631 µM,,O=C(O)CCC/C=C(/c1cccnc1)c1cccc(CCNS(=O)(=O)c2ccc(Cl)c(Cl)c2)c1,,
0.0316 µM,7.94 µM,0.0794 µM,,O=C(O)CC/C=C(/c1cccnc1)c1cccc(CCNS(=O)(=O)c2ccccc2)c1,,
0.2 µM,1 µM,0.0501 µM,,O=C(O)CCC/C=C(/c1cccnc1)c1cccc(CCNS(=O)(=O)c2ccccc2[N+](=O)[O-])c1,,
0.001 µM,0.631 µM,0.0316 µM,,O=C(O)CCC/C=C(/c1cccnc1)c1cccc(CCNS(=O)(=O)c2ccc(I)cc2)c1,> 98%,
0.0251 µM,0.794 µM,0.0316 µM,,O=C(O)CCC/C=C(/c1cccnc1)c1cccc(CCNS(=O)(=O)c2ccc(F)cc2)c1,,
0.126 µM,1 µM,0.0501 µM,,O=C(O)CCC/C=C(/c1cccnc1)c1cccc(CCCNS(=O)(=O)c2ccccc2)c1,,
